Source: patent publication US20090170810A1, “METHODS OF TREATMENT OF CARDIOVASCULAR AND CEREBROVASCULAR DISEASES WITH LOW MOLECULAR WEIGHT FUCOIDAN” (Beijing Century Biocom Pharmaceutical Technology Co. Ltd., priority 2006, published 2009)

What was measured:
brain of ischemic mice = test: Cerebral ischemia in mice with common carotid artery ligation and reperfusion (brain LDH, SOD); assay type: in vivo; conditions: 2 mg/kg
Procedure: Experimental grouping: a control group and a model group (respectively administrating an equal volume of normal salt), a positive control group (nimodipine, 2 mg/kg), sample A groups (200, 100, and 50 mg/kg), and sample B groups (200, 100, and 50 mg/kg), the injection dosage being […].
Animal model setup: the grouped mice were respectively administrated test substance, nimodipine or normal salt by tail intravenous injection. After 15 minutes, the mice were anesthetized with 3.5% chloral hydrate, fixed in the back. The right and left common carotid artery and vagus nerve were exposed, and 4-0 suture was inserted under the bilateral carotid arteries. The line was tightened to block blood flow for 5 minutes. Then the line was loosened to make the blood reperfusion for 10 minutes. The operation was repeated three times, and an ischemia-reperfusion model in mice was established. After the last reperfusion, the mice were decapitated and brain collected. In the control group, only the bilateral carotid arteries were exposed, without line being inserted.

decapitated mice [1] = test: Brain index and brain water content in decapitated mice; assay type: in vivo, ICR mice; conditions: 2 mg/kg
Procedure: (§1) ICR mice (equally divided between male and female) were divided randomly in a blank control group, a positive control group and dosage groups of sample A (200, 100, and 50 mg/kg) and sample B (400, 200, 100, 50 mg/kg). The mice in medical groups were administrated by tail intravenous injection, and the dosage was […]. The positive control group was administrated nimodipine (2 mg/kg) by tail intravenous injection. The model group was administrated normal salt. At 15 minutes after administration, the mice were decapitated by a pair of scissors. The mouth breathing time, breathing frequency and brain water content were recorded and compared with other groups.
Measurement of brain water content: whole brains were collected, after the wet weight was obtained, they were dried in an oven at 100° C. for 24 hours, the average value was taken to calculate brain water content: brain water content(%)=[…]. Brain index: brain index=brain wet weight (g)/body weight (g)×100%.

decapitated mice [2] = test: Breathing time and breathing frequency in decapitated mice; assay type: in vivo, ICR mice; conditions: 2 mg/kg, tail i.v., decapitated 15 minutes after administration
Procedure: as §1

With COCCOC(=O)C1=C(C)NC(C)=C(C(=O)OC(C)C)C1c1cccc([N+](=O)[O-])c1 (stereo not drawn) [Nimodipine, nimodipine] the “LDH (U/mg)” value (brain of ischemic mice) was 11.3 ± 6.6 U/mg, the “SOD (U/mg)” value (brain of ischemic mice) was 144.77 ± 21.61 U/mg and the “Brain index (%)” value (decapitated mice [1]) was 1.40 ± 0.14 %. The “Brain water content (%)” value (decapitated mice [1]) was 75.1 ± 0.9 %, the “Breathing frequency (times)” value (decapitated mice [2]) was 17.0 ± 3.2 times and the “Breathing time” value (decapitated mice [2]) was 23.8 ± 3.2 s.
